Laboratory results published in patent US10265329B2, “Altering steroid metabolism for treatment of steroid-dependent disease” (THE CLEVELAND CLINIC FOUNDATION, priority 2015, dated 2019).
“Also recorded” adds a separate entry of the source.

What was measured:
[1] = tested on: androgen-responsive gene expression (PSA); assay: Stimulation of androgen-responsive gene expression by Abi metabolites (qPCR); type: cell-based, human; settings: LAPC4 and LNCaP
Description: Cells were starved with phenol red-free and serum free-medium for at least 48 h before treatment with the indicated drugs and/or androgens. RNA extraction and cDNA synthesis were performed with the GenElute Mammalian Total RNA miniprep kit (Sigma-Aldrich) and iScript cDNA Synthesis Kit (Bio-Rad, Hercules, Calif.) respectively. Quantitative PCR (qPCR) analysis was conducted in triplicate in an ABI 7500 Real-Time PCR machine (Applied Biosystems) using iTaq Fast SYBR Green Supermix with ROX (Bio-Rad) and primers for TMPRSS2, PSA and RPLPO, as described. Chang et al., Cell 154, 1074-1084 (2013). Accurate quantitation of each mRNA was achieved by normalizing the sample values to RPLPO and to vehicle-treated cells. 50 μg cell lysate was used for immunoblot with rabbit anti-SRD5A1 (Abnova) and mouse anti-β-actin (Sigma-Aldrich) antibodies.

VCaP CRPC xenografts = assay: VCaP CRPC xenograft growth under 5α-reduced Abi metabolites; type: in vivo; settings: orchiectomized mice; i.p. daily up to 20 days; >30% growth
Description: Male NSG mice, 6 to 8 weeks of age were obtained from the Cleveland Clinic Biological Resources Unit facility. All mouse studies were conducted under a protocol approved by the Cleveland Clinic Institutional Animal Care and Use Committee. 10^7 VCaP cells were injected subcutaneously with matrigel. […] Control groups were administered 0.15 mL 5% benzyl alcohol and 95% safflower oil solution via intraperitoneal injection every day. Tumor volume was measured every other day, and time to increase in tumor volume by 30% was determined (2 sequential increases). Mice were sacrificed at treatment day 20. The significance of the difference between treatment groups was assessed by Kaplan-Meier survival analysis using a log-rank test in SigmaStat 3.5.

[2] = Serum deoxycorticosterone at end of xenograft study; type: in vivo; settings: serum from treated mice at the end of the xenograft study
Description: Mouse serum collection, derivatization and extraction. […] Louis, Mo.). Steroids were extracted with methyl tert-butyl ether (Sigma Aldrich, St. Louis, Mo.), evaporated under a stream of nitrogen gas and reconstituted in methanol:water (50:50) prior to mass spectrometry analysis. Mouse serum analysis. Samples were analyzed on a Thermo TSQ Quantiva-Prelude SPLC system (Thermo Scientific, Waltham, Mass.) with Aria MX 2.1 and Tracefinder 3.2.368.22 software for instrument controls and quantitation. […] Steroids were ionized by electrospray ionization and in positive ion mode. […] Concentrations were determined using stable isotope dilution analysis.

[3] = Abi metabolites in sera of patients with CRPC treated with Abi acetate; type: in vivo, human; settings: patients undergoing treatment with Abi acetate
Description: Patient serum collection and drug extraction. Twelve patients with CRPC undergoing treatment with Abi acetate were consented under an Institutional Review Board—approved protocol (Case 7813). Blood was collected using Vacutainer Plus serum blood collection tubes (#BD367814, Becton Dickenson, Franklin Lakes, N.J.). Blood was collected between 2 and 14 hours after the 1000 mg daily dose of Abi acetate was administered. Blood was allowed to clot and tubes were centrifuged at 2500 RPM for 10 minutes. Serum aliquots were frozen at −80° C. until processing. Drug metabolites and internal standard (d4-cortisol, CDN isotopes Pointe-Claire, Quebec Canada) were extracted from 200 μL of patient serum with methyl tert-butyl ether (Sigma Aldrich, St. Louis, Mo.), evaporated under a stream of nitrogen gas and reconstituted in methanol prior to mass spectrometry analysis.
Patient serum analysis. Blood was obtained from prostate cancer patients with consent under a protocol approved by the Cleveland Clinic Institutional Review Board. Samples were analyzed on a ultra high-performance liquid chromatography station (Shimadzu, Kyoto, Japan) with a DGU-20A3R degasser, 2 LC-30AD pumps, a SIL-30AC autosampler, a CTO-10A column oven and a CBM-20A system controller in tandem with a QTRAP 5500 mass spectrometer (AB Sciex, Framingham, Mass.). […]

human 3βHSD1 = molecular target: T1, human 3βHSD1 (Homo sapiens, UniProt P14060); assay: Recombinant 3βHSD1 enzyme assay, [3H]-pregnenolone metabolism (Lineweaver-Burk); type: biochemical; settings: pregnenolone substrate; D4A 5-20 μmol/L
T1 construct: made in house; host or cells: yeast (microsomes)
Description: To test D4A as an inhibitor of 3βHSD, enzyme assays were performed as described previously. Li et al., Clin Cancer Res. 18:3571-3579 (2012). Briefly, incubations were prepared with recombinant human 3βHSD1 or 3βHSD2 (in yeast microsomes, 45 or 2.5 μg protein per incubation, respectively), [^3H]-pregnenolone (100,000 cpm, 1-20 μmol/L), and D4A (5-20 μmol/L) or ethanol vehicle in 0.5 mL of potassium phosphate buffer (pH 7.4). After a pre-incubation at 37° C. for 1 to 3 min, NAD (1 mmol/L) was added, and the incubation was conducted at 37° C. for 20 min. The reaction was stopped by addition of 1 mL ethyl acetate:isooctane (1:1), and the steroids were then extracted into the organic phase and dried. The steroids in the dried extracts were resolved by HPLC and quantitated by in-line scintillation counting

T1 sequence (P14060 whole entry): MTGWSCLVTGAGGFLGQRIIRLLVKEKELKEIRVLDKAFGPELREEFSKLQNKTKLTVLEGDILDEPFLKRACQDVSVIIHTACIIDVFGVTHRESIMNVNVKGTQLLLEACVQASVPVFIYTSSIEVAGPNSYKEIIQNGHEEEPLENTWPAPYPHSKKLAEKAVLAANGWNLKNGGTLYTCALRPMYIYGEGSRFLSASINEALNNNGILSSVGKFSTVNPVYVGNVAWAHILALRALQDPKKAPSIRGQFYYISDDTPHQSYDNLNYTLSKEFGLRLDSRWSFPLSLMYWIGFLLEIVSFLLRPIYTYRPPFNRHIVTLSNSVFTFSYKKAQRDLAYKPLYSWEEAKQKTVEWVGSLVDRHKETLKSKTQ

Compound: C[C@]12CC[C@@H](O)C[C@@H]1CC[C@@H]1[C@@H]2CC[C@]2(C)C(c3cccnc3)=CC[C@@H]12 [Compound 3α-OH-5α-Abi, 17-(3-pyridyl)-5α-androsta-16-ene-3α-ol]
- induction of androgen-responsive gene expression [1]: A lower level of induction
- progression-free survival compared to control xenografts (VCaP CRPC xenografts): no detectable effect

Compound: C[C@]12CCC(=O)C=C1CC[C@@H]1[C@@H]2CC[C@]2(C)C(c3cccnc3)=CC[C@@H]12 [Compound D4A, 17-(3-Pyridyl)androsta-4,16-dien-3-one]
- serum deoxycorticosterone [2]: no detectable increase
- detection in sera of patients with CRPC [3]: detectable
- type of inhibition of 3βHSD1 (human 3βHSD1): mixed competitive-noncompetitive inhibition; also recorded: mixed inhibition kinetics

Compound: C[C@]12CCC(=O)C[C@@H]1CC[C@@H]1[C@@H]2CC[C@]2(C)C(c3cccnc3)=CC[C@@H]12 [Compound 5α-Abi, 17-(3-pyridyl)-5α-androsta-16-ene-3-one]
- induction of androgen-responsive gene expression [1]: results in expression of androgen-responsive genes
- progression-free survival compared to control xenografts (VCaP CRPC xenografts): significantly shortened progression-free survival
